Assay [1] concerns the target T1, AKR1B10 (Homo sapiens, UniProt O60218).
T1 construct: 6xHis; made in house; host or cells: E. coli BL21 (DE3)
Description: AKR1B10 inhibition, DL-glyceraldehyde reduction (NADPH decrease at 340 nm). The following applies: for IC50 / Ki: AKR1B10, Glyceraldehyde [4.0 mM], mean ± SD; for Ki: read-out: Ki (Morrison); for Ratio AKR1A1/AKR1B10 / Ratio AKR1B1/AKR1B10: IC50-ratio, glyceraldehyde as substrate. Type of assay: biochemical. The method, then:
(§1) The carbonyl-reducing enzymes AKR1A1, AKR1B1, AKR1B10 were prepared in an Escherichia coli expression system according to previously published methods: plasmids of AKR1A1 and AKR1B1 were friendly gifts from Prof. Dr. Vladimir Wsol and Dr. Nina Kassner; information about production and purification of AKR1B10 [19] has been published before (sequences of all obtained plasmids containing the specific inserts were verified by sequencing (MWG Eurofins)). The plasmids were then transformed in E. coli BL21 (DE3) cells. For overexpression of 6× His-tagged enzymes, a 400 mL culture (containing the appropriate antibiotic; plasmid dependent) was grown to optical density of 0.6 at 600 nm at 37 °C. Expression was induced by adding isopropyl-1-thio-galactopyranoside to the culture medium (final concentration of 1 mM). After 3 h, cells were harvested by centrifugation (6000× g, 15 min) and resuspended in 20 mL PBS-I buffer (20 mM Na2H2PO4, 500 mM NaCl, 10 mM imidazole, 10% v/v glycerol, pH 7.4). Cell disruption was performed by ultrasonication with cooling on ice to avoid heating. The sample was subsequently centrifuged at 100,000× g at 4 °C for 1 h. The obtained supernatants containing the respective enzymes were purified using Ni-affinity chromatography (ÄKTA-Purifier; Amersham Pharmacia, Uppsala, Sweden) using PBS-II buffer (20 mM Na2H2PO4, 500 mM NaCl, 500 mM imidazole, 10% v/v glycerol, pH 7.4). Purification progress was monitored by SDS-PAGE of the obtained fractions (not shown). Enzyme concentrations were determined using a Qubit 2.0 fluorometric quantitation system (Life Technologies, Carlsbad, CA, USA) according to the manufacturer’s instructions.
(§2) Catalytic properties were determined by measuring the decrease in absorbance at 340 nm (Cary 100 scan photometer, Varian, CA, USA). A reaction mixture without inhibitor consisted of different concentrations of DL-glyceraldehyde or farnesal, 200 μM NADPH, 0.1 M NaH2PO4 buffer (pH 7.4) and an appropriate amount of enzyme in a total assay volume of 0.8 mL. Final enzyme concentrations in the assay ranged from 222 nM (AKR1A1) to 899 nM (AKR1B10). KM values were obtained by fitting the kinetic data (mean ± SD from at least three experiments) to the Michaelis‒Menten model, as implemented in GraphPad Prism6 (GraphPad Software Inc., La Jolla, CA, USA).
(§3) For inhibition studies, stock solutions of inhibitors were prepared in H2O (iso-α-acid mixture) and DMSO (α-acid mixture and compounds 1–3 purified from the same mixture). […] When collecting data for dose–response curves initial velocities of DL-glyceraldehyde or farnesal reduction (substrate concentration at KM) in the presence of inhibitors were assayed as described above. The percentage of inhibition was calculated considering the activity in the absence of inhibitor to be 100%.
Initially, the half maximal inhibitory concentrations (IC50 values) were determined for each inhibitor in presence of each enzyme, using the shared substrate DL-glyceraldehyde (set to their specific KM; 3.6 mM, 50 μM and 4 mM for AKR1A1, AKR1B1 and AKR1B10, respectively) to assess specificity amongst the structurally similar members of the AKR-superfamily.
For IC50 determination, experimental data were normalised and fitted to a sigmoidal curve as implemented in GraphPad Prism6 (GraphPad Software Inc., La Jolla, CA, USA). Whenever tight-binding inhibition was observed, the inhibition constant Ki was determined by fitting inhibition data to the Morrison equation [43]. In order to verify the inhibitory potency, farnesal as an enzyme-specific physiological substrate for AKR1B10 (farnesal; KM = 5 µM) was used to determine inhibition parameters. Enzyme inhibition parameters were assayed as described above. The inhibition mechanism of each compound for AKR1B10 was analysed by plotting IC50-values at different substrate concentrations (at least five inhibitor and substrate concentrations). […]

A further assay has as its target T2, AKR1A1 (Homo sapiens, UniProt P14550).
T2 construct: 6xHis; made in house; host or cells: E. coli BL21 (DE3)
T2 sequence (P14550 1-325): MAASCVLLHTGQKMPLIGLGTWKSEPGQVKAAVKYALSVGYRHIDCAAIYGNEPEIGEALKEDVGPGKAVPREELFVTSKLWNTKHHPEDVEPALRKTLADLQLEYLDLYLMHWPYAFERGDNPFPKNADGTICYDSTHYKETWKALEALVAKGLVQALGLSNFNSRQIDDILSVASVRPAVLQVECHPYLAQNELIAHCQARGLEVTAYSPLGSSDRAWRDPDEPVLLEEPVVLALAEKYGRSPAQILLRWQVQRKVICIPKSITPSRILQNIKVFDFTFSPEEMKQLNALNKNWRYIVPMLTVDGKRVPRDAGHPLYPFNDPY
The experiment in a line: AKR1A1 inhibition, DL-glyceraldehyde reduction (NADPH decrease at 340 nm). Type of assay: biochemical. The following applies: AKR1A1, Glyceraldehyde [3.6 mM]. The method, then: The carbonyl-reducing enzymes AKR1A1, AKR1B1, AKR1B10 were prepared in an Escherichia coli expression system according to previously published methods: plasmids of AKR1A1 and AKR1B1 were friendly gifts from Prof. Dr. Vladimir Wsol and Dr. Nina Kassner; information about production and purification of AKR1B10 [19] has been published before (sequences of all obtained plasmids containing the specific inserts were verified by sequencing (MWG Eurofins)). The plasmids were then transformed in E. coli BL21 (DE3) cells. For overexpression of 6× His-tagged enzymes, a 400 mL culture (containing the appropriate antibiotic; plasmid dependent) was grown to optical density of 0.6 at 600 nm at 37 °C. […] Purification progress was monitored by SDS-PAGE of the obtained fractions (not shown). Enzyme concentrations were determined using a Qubit 2.0 fluorometric quantitation system (Life Technologies, Carlsbad, CA, USA) according to the manufacturer’s instructions.
(§4) Catalytic properties were determined by measuring the decrease in absorbance at 340 nm (Cary 100 scan photometer, Varian, CA, USA). […]
(§5) For inhibition studies, stock solutions of inhibitors were prepared in H2O (iso-α-acid mixture) and DMSO (α-acid mixture and compounds 1–3 purified from the same mixture). […] The percentage of inhibition was calculated considering the activity in the absence of inhibitor to be 100%. […]

In assay [2] the target is T1, AKR1B10. The experiment in a line: AKR1B10-mediated farnesal reduction inhibition. Type of assay: biochemical. The following applies: for IC50 / Ki: AKR1B10, Farnesal [5 µM], mean ± SD; for Mode of inhibition: AKR1B10, farnesal reduction. The method, then:
as §1, §2, §3
For IC50 determination, experimental data were normalised and fitted to a sigmoidal curve as implemented in GraphPad Prism6 (GraphPad Software Inc., La Jolla, CA, USA). Whenever tight-binding inhibition was observed, the inhibition constant Ki was determined by fitting inhibition data to the Morrison equation [43]. In order to verify the inhibitory potency, farnesal as an enzyme-specific physiological substrate for AKR1B10 (farnesal; KM = 5 µM) was used to determine inhibition parameters. Enzyme inhibition parameters were assayed as described above. The inhibition mechanism of each compound for AKR1B10 was analysed by plotting IC50-values at different substrate concentrations (at least five inhibitor and substrate concentrations). All data obtained were plotted and analysed using GraphPad Prism6 (GraphPad Software Inc., La Jolla, CA, USA).

The target of the next assay is T3, AKR1B1 (Homo sapiens, UniProt P15121).
T3 construct: 6xHis; made in house; host or cells: E. coli BL21 (DE3)
The experiment in a line: AKR1B1 inhibition, DL-glyceraldehyde reduction (NADPH decrease at 340 nm). The class given is biochemical. The following applies: AKR1B1, Glyceraldehyde [50 µM]. The method, then:
as §1, with “The sample was subsequently centrifuged at 100,000× g at 4 °C for 1 h. The obtained supernatants containing the respective enzymes were purified using Ni-affinity chromatography (ÄKTA-Purifier; Amersham Pharmacia, Uppsala, Sweden) using PBS-II buffer (20 mM Na2H2PO4, 500 mM NaCl, 500 mM imidazole, 10% v/v glycerol, pH 7.4).” left out
as §4, §5
For IC50 determination, experimental data were normalised and fitted to a sigmoidal curve as implemented in GraphPad Prism6 (GraphPad Software Inc., La Jolla, CA, USA). Whenever tight-binding inhibition was observed, the inhibition constant Ki was determined by fitting inhibition data to the Morrison equation [43]. […]

The next assay has as its system cyclooxygenase-1. Details: method as in PMID 10631313. The following applies: cited from earlier work.
For another assay, the target named is cyclooxygenase-2. Details: method as in PMID 10631313. The following applies: cited from earlier work.
Assay [3] addresses AKR1B10. The arrangement: method as in PMID 27665999. The following applies: cited from earlier work.
Assay [4] has as its system AKR1B10. The arrangement: method as in PMID 23123477. The following applies: cited from earlier work.

T1 sequence (O60218 whole entry): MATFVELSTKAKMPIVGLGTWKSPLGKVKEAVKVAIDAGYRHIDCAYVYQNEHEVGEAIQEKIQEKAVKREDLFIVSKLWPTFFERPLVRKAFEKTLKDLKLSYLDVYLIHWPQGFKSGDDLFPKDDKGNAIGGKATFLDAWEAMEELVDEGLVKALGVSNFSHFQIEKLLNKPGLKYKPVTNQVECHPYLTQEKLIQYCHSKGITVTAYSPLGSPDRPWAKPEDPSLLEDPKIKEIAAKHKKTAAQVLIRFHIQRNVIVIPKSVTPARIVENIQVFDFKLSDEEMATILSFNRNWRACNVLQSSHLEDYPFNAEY

Consider `CC(C)=CCC1=C(O)C(O)(CC=C(C)C)C(=O)C(C(=O)C(C)C)=C1O` (stereo in doubt) [Compound 2, cohumulone], for which, on AKR1B10 [1], the half-inhibitory concentration (IC50) (commonly the point on the concentration scale where inhibition reaches its midpoint) was determined as 1.35 ± 0.07 µM; the inhibition constant Ki – broadly, a dissociation constant, usually derived from enzyme kinetics or from competition with a known ligand – is 0.7 ± 0.09 µM; the “Ratio AKR1A1/AKR1B10” value was greater than 74; the “Ratio AKR1B1/AKR1B10” value was greater than 93. This compound showed an IC50 on AKR1A1 greater than 100 µM. On AKR1B10 [2], half-maximal inhibition (IC50) was put at 29.8 ± 1.72 µM, the Ki is 16.5 ± 1.74 µM and the Mode of inhibition entry was “non-competitive”. The IC50 against AKR1B1 was greater than 125 µM.

Regarding `CCC(C)C(=O)C1=C(O)C(CC=C(C)C)=C(O)[C@](O)(CC=C(C)C)C1=O` (stereo partly drawn) [Compound 1, adhumulone], on AKR1B10 [1], half-maximal inhibition (IC50) was put at 5.41 ± 0.42 µM, the Ki was 3.27 ± 0.52 µM, the “Ratio AKR1A1/AKR1B10” value is reported as no less than 19 and the “Ratio AKR1B1/AKR1B10” value is greater than 23. At AKR1B10 [2], the IC50 was 29.3 ± 1.53 µM, the Ki was found to be 16.8 ± 1.33 µM and the Mode of inhibition result is given as “competitive”. On AKR1B1, the half-inhibitory concentration (IC50) was greater than 125 µM.

As for `CC(C)=CCC1C(=O)C(C(=O)CC(C)C)=C(O)C(O)(CC=C(C)C)C1=O` (stereo not drawn) [Compound 3, n-humulone], in the assay with cyclooxygenase-1, the “inhibition of cyclooxygenase-1” value is “not inhibited at concentrations below 10 µM”. Also, at AKR1B10 [1], the IC50 turned out to be 1.94 ± 0.1 µM, the inhibition constant (Ki) amounted to 0.98 ± 0.12 µM, the “Ratio AKR1A1/AKR1B10” value is given as greater than 52 and the “Ratio AKR1B1/AKR1B10” value is listed as greater than 64. Moreover, the IC50 against AKR1A1 was greater than 100 µM. On AKR1B10 [2], the half-inhibitory concentration (IC50) was found to be 7.78 ± 0.43 µM, the Ki was found to be 3.94 ± 0.33 µM and the Mode of inhibition entry is reported as “non-competitive”. The concentration for half-maximal inhibition (IC50) on AKR1B1 was greater than 125 µM. Moreover, the concentration for half-maximal inhibition (IC50) on cyclooxygenase-2 was 1.6 µM.

Take `CCCCC/C=C\C/C=C\C/C=C\C/C=C\CCCC(=O)O` [arachidonic acid]: the Ki on AKR1B10 [3] is 0.26 µM.

In the case of `CC(C)=CCc1c(O)cc2oc3cc(O)c(O)c(CC=C(C)C)c3c(=O)c2c1O` [γ-mangostin], the IC50 in the assay with AKR1B10 [4] was 0.018 µM.

These data come from paper PMC6278539, “Selective Inhibition of Human AKR1B10 by n-Humulone, Adhumulone and Cohumulone Isolated from Humulus lupulus Extract” (Molecules, 2018).
